≈ marks a conversion by molar mass, not a printed value. Where two headings read alike, the source gives them in different places.

In general, IC50 refers to the concentration that gives 50% inhibition.

Data set [1] can be described thus: 72 hr cytotoxicity assay; in vitro antitumor activity. Format: cell-based. The note with it: for in vitro antitumor activity: in words, compared with vinblastine. Here is the method: The 18'(S)-epimer was tested in vitro for antitumor activity in comparison with the 18'(R)-epimer and vinblastine. IC50 's were determined in a 72 hr cytotoxicity assay.
The conditions of data set [2]: cited from earlier work.
[3] abbreviates: 72 hr cytotoxicity assay, in vitro, cell line not given, read-out: IC50.
Setting [4] is: compared with vinblastine and vincristine (Fellous et al., 1989).

As for `CC[C@]12C=CCN3CC[C@@]4(c5cc([C@]6(C(=O)OC)C[C@@H]7CCCN(Cc8c6[nH]c6ccccc86)C7)c(OC)cc5N(C)[C@H]4[C@@](O)(C(=O)OC)[C@@H]1OC(C)=O)[C@@H]32` [18'(R)-Dihydrodesethylnavelbine, (+)-18'R-4'-Desethyl-4'-deshydroxy-7'-norvinblastine], the IC50 entry in data set [1] (72 hr cytotoxicity assay, in vitro, cell line not given) is “no activity”. Further, the “in vitro antitumor activity” value in data set [1] was “inactive”.
In turn, `CC[C@]12C=CCN3CC[C@@]4(c5cc([C@@]6(C(=O)OC)C[C@@H]7CCCN(Cc8c6[nH]c6ccccc86)C7)c(OC)cc5N(C)[C@H]4[C@@](O)(C(=O)OC)[C@@H]1OC(C)=O)[C@@H]32` [18'(S)-Dihydrodesethylnavelbine, (+)-18'S-4'-Desethyl-4'-deshydroxy-7'-norvinblastine] showed an IC50 in data set [1] (72 h) of 0.5 ng/mL (≈ 0.664 nM). For the same compound, in data set [1], the “in vitro antitumor activity” value was “comparable to vinblastine”.
Turning to `CCC1=C[C@@H]2CN(C1)Cc1c([nH]c3ccccc13)[C@@](C(=O)OC)(c1cc3c(cc1OC)N(C)[C@H]1[C@@](O)(C(=O)OC)[C@H](OC(C)=O)[C@]4(CC)C=CCN5CC[C@]31[C@@H]54)C2` [Navelbine], in data set [1] (setting [3]), the IC50 was 5 ng/mL (≈ 6.42 nM). Further, the cytotoxicity entry in data set [2] (compared with Vinblastine) is on record as “decreased cytotoxicity compared with Vinblastine”. Besides, in data set [2] (setting [4]), the antitumor activity result is recorded as “broader antitumor activity”; the “neurotoxicity and other side effects” value is “lower neurotoxicity and other side effects”.
As for `CC[C@]1(O)C[C@@H]2CN(CCc3c([nH]c4ccccc34)[C@@](C(=O)OC)(c3cc4c(cc3OC)N(C)[C@H]3[C@@](O)(C(=O)OC)[C@H](OC(C)=O)[C@]5(CC)C=CCN6CC[C@]43[C@@H]65)C2)C1` [Vinblastine], in data set [1] (setting [3]), the IC50 is 0.5 ng/mL (≈ 0.617 nM).

The values above are taken from patent US5220016A, “Synthesis of navelbine analogs” (priority 1991, dated 1993).
